Data published in PubChem BioAssay AID1963845 (Molecular Pharmacology Branch, DTP, NCI, 2024).

Tested on: 429239-143-T-J1-PDC complex spheroid viability
Assay: Anticancer human tumor 429239-143-T-J1-PDC patient-derived small cell lung carcinoma cell line growth inhibition [POLQ]
Conditions: for IC50: curve of first compound; for viability, T/C: stronger effect = lower value
Procedure: Multicellular complex tumor spheroid response to Polymerase (POL) inhibitors (novobiocin, ART-558, RP6685) in combination with a variety of drugs and investigational agents in selected tumor cell lines
The POL inhibitors (novobiocin, ART-558, and RP6685) were evaluated both individually and in combination with standard of care and investigational anticancer small molecules within a complex spheroid model of solid tumors. . Complex spheroids include a stromal component modeled by human endothelial cells (HUVEC) and fibroblasts modeled by human mesenchymal stem cells (MSCs). The concentration ranges selected for each drug and investigational agent were based upon clinically achievable concentrations if the clinical Cmax of the agent was known.
Compounds. The drugs and investigational agents: novobiocin (NSC847541), ART-558 (NSC835418), RP-6685 (NSC848927), peposertib (NSC802822), ceralasertib (NSC780249), elimusertib (NSC800525), camonsertib (NSC841442), AZD-1390 (NSC803789), olaparib (NSC753686), talazoparib (NSC767125), rucaparib (NSC756644), sotorasib (NSC818433), MRTX-1133 (NSC836407), SN-38 (NSC673596), topotecan (NSC609699), epotoside (NSC141540), doxorubicin (NSC123127), gemcitabine (NSC613327), 5-fluorouracil (NSC19893), paclitaxel (NSC125973), vemurafenib (NSC761431), MSA-2 (NSC828583), SN-011 (NSC837082), adavosertib (NSC754352), prexasertib (NSC758257), carboplatin (NSC241240) and oxaliplatin (NSC266046), were obtained from the National Cancer Institute (NCI) Developmental Therapeutics Program Chemical Repository (21). The FDA-approved anticancer drug set is available from the Developmental Therapeutics Program at https://dtp.cancer.gov/organization/dscb/obtaining/. […] The stock solutions were prepared in dimethyl sulfoxide (DMSO, Sigma-Aldrich, St. Louis, MO, cat. D2650), except for the platinum compounds which were prepared in saline (Quality Biological, Gaithersburg, MD, cat. 114-055-101), at 800-fold the tested concentration and stored at -70 degrees C prior to their use. All drugs and investigational agents were tested over a range starting from a high concentration at or near the clinical Cmax and decreasing in half-log increments. If the clinical Cmax for an agent had not been determined, the highest concentration tested was 10 microM, except for SN-38, which was tested at a high concentration of 1 microM.
Cell Culture. All cells were maintained in an incubator at 37 degrees C and 5% CO2 with 95% humidity. The PDC lines were cultured according to standard operating procedures established by the NCI PDMR (https://pdmr.cancer.gov). Table 3 of the manuscript, lists the cell lines along with the number of the three cell types plated to form the mct-spheroids and media for tumor cell growth. After thawing, all PDC lines, except 997537-175-T-J1-PDC and 415267-285-R-J2-PDC, were cultured in Matrigel-coated flasks prepared with a working solution of 1X Ham's F-12 nutrient mix, without supplementation (Thermo Fisher Scientific, cat. 11765054), 100 U/mL penicillin-streptomycin (Thermo Fisher Scientific, cat. 15140122), and 2.5% Matrigel (Corning Inc., Corning, NY, cat. 354248) for the first three passages. The two PDC lines 997537-175-T-J1-PDC and 415267-285-R-J2-PDC were cultured on uncoated flasks. The 857933-349-R-J2-PDC line was cultured in 6C/Colon 1B media containing advanced DMEM/F-12 (Thermo Fisher Scientific, cat. 12634028), 10 mM HEPES (Thermo Fisher Scientific, cat. 15630080), 1X GlutaMAX supplement (Thermo Fisher Scientific, cat. 35050061), 0.1 mg/mL primocin (InvivoGen, San Diego, CA, cat. ant-pm-2), 10% defined fetal bovine serum, heat inactivated (HyClone Laboratories Inc., Logan, UT, cat. SH30070.03HI), 50% L-WRN conditioned media (ATCC, cat. CRL-3276), 1.25 mM N-Acetyl-L-cysteine (Sigma-Aldrich, cat. A9165), 10 mM nicotinamide (Sigma-Aldrich, cat. N0636), 1X B-27 supplement (Thermo Fisher Scientific, cat. 17504044), 1X N-2 supplement (Thermo Fisher Scientific, cat. […]

[1] = second compound 0.0316 µM, first compound 0.0316 µM
[2] = second compound 0.0316 µM, first compound 0.1 µM
[3] = second compound 0.0316 µM, first compound 0.316 µM
[4] = second compound 0.0316 µM, first compound 1 µM
[5] = second compound 0.0316 µM, first compound 3.16 µM
[6] = second compound 0.0316 µM, first compound 10 µM
[7] = second compound 0.1 µM, first compound 0.0316 µM
[8] = second compound 0.1 µM, first compound 0.1 µM
[9] = second compound 0.1 µM, first compound 0.316 µM
[10] = second compound 0.1 µM, first compound 1 µM
[11] = second compound 0.1 µM, first compound 3.16 µM
[12] = second compound 0.1 µM, first compound 10 µM
[13] = second compound 0.316 µM, first compound 0.0316 µM
[14] = second compound 0.316 µM, first compound 0.1 µM
[15] = second compound 0.316 µM, first compound 0.316 µM
[16] = second compound 0.316 µM, first compound 1 µM
[17] = second compound 0.316 µM, first compound 3.16 µM
[18] = second compound 0.316 µM, first compound 10 µM
[19] = second compound 1 µM, first compound 0.0316 µM
[20] = second compound 1 µM, first compound 0.1 µM
[21] = second compound 1 µM, first compound 0.316 µM
[22] = second compound 1 µM, first compound 1 µM
[23] = second compound 1 µM, first compound 3.16 µM
[24] = second compound 1 µM, first compound 10 µM
[25] = second compound 3.16 µM, first compound 0.0316 µM
[26] = second compound 3.16 µM, first compound 0.1 µM
[27] = second compound 3.16 µM, first compound 0.316 µM
[28] = second compound 3.16 µM, first compound 1 µM
[29] = second compound 3.16 µM, first compound 3.16 µM
[30] = second compound 3.16 µM, first compound 10 µM
[31] = second compound 10 µM, first compound 0.0316 µM
[32] = second compound 10 µM, first compound 0.1 µM
[33] = second compound 10 µM, first compound 0.316 µM
[34] = second compound 10 µM, first compound 1 µM
[35] = second compound 10 µM, first compound 3.16 µM
[36] = second compound 10 µM, first compound 10 µM
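Note: luminescence signal used as surrogate measure of viable cells; spheroids exposed to compounds for seven days before readout.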
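Throughout, for viability, T/C: 100% = DMSO vehicle control viability as luminescence relative to vehicle.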

Q: Which IC50 (second compound 0.0316 µM) does the source give for `C=CC(=O)N1CCN(c2nc(=O)n(-c3c(C)ccnc3C(C)C)c3nc(-c4c(O)cccc4F)c(F)cc23)C(C)C1` (centres undefined) + Cc1cccc(N(C)C(=O)C2C(O)CCN2c2nc(C)cc(C(F)(F)F)c2C#N)c1 here?
A: > 10 µM

Q: And the IC50 (second compound 0.1 µM)?
A: > 10 µM

Q: What about the IC50 (second compound 0.316 µM) of the same molecule?
A: > 10 µM

Q: And the IC50 (second compound 1 µM)?
A: > 10 µM

Q: What about the IC50 (second compound 3.16 µM) of the same molecule?
A: > 10 µM

Q: What about the IC50 (second compound 10 µM) of the same molecule?
A: > 10 µM

Q: And the viability, T/C [1]?
A: 97.2%

Q: What about the viability, T/C [2] of the same molecule?
A: 85%

Q: And the viability, T/C [3]?
A: 102%

Q: And the viability, T/C [4]?
A: 97.5%

Q: What about the viability, T/C [5] of the same molecule?
A: 96%

Q: What about the viability, T/C [6] of the same molecule?
A: 98.7%

Q: And the viability, T/C [7]?
A: 93.2%

Q: What about the viability, T/C [8] of the same molecule?
A: 96.8%

Q: What about the viability, T/C [9] of the same molecule?
A: 108%

Q: And the viability, T/C [10]?
A: 89.8%

Q: And the viability, T/C [11]?
A: 92.9%

Q: And the viability, T/C [12]?
A: 109%

Q: What about the viability, T/C [13] of the same molecule?
A: 105%

Q: And the viability, T/C [14]?
A: 94.3%

Q: What about the viability, T/C [15] of the same molecule?
A: 107%

Q: What about the viability, T/C [16] of the same molecule?
A: 97.8%

Q: What about the viability, T/C [17] of the same molecule?
A: 108%

Q: What about the viability, T/C [18] of the same molecule?
A: 116%

Q: What about the viability, T/C [19] of the same molecule?
A: 88.8%

Q: What about the viability, T/C [20] of the same molecule?
A: 93.4%

Q: And the viability, T/C [21]?
A: 104%

Q: And the viability, T/C [22]?
A: 88.5%

Q: What about the viability, T/C [23] of the same molecule?
A: 103%

Q: And the viability, T/C [24]?
A: 104%

Q: And the viability, T/C [25]?
A: 95.5%

Q: What about the viability, T/C [26] of the same molecule?
A: 88%

Q: And the viability, T/C [27]?
A: 86.6%

Q: What about the viability, T/C [28] of the same molecule?
A: 101%

Q: What about the viability, T/C [29] of the same molecule?
A: 104%

Q: What about the viability, T/C [30] of the same molecule?
A: 122%

Q: And the viability, T/C [31]?
A: 98.8%

Q: And the viability, T/C [32]?
A: 85.3%

Q: What about the viability, T/C [33] of the same molecule?
A: 94.4%

Q: What about the viability, T/C [34] of the same molecule?
A: 97.9%

Q: What about the viability, T/C [35] of the same molecule?
A: 102%

Q: And the viability, T/C [36]?
A: 100%

Q: What does the source list for `CNCc1ccc(-c2[nH]c3cc(F)cc4c3c2CCNC4=O)cc1` + Nc1ccc(C#CCN(C(=O)Cc2ncc(C(F)(F)F)cc2C(F)(F)F)c2ccc(F)cc2)nn1?
A: IC50 (second compound 0.0316 µM): 6.53 µM; IC50 (second compound 0.1 µM): 6.07 µM; IC50 (second compound 0.316 µM): 6.32 µM; IC50 (second compound 1 µM): 5.54 µM; IC50 (second compound 3.16 µM): 6.09 µM; IC50 (second compound 10 µM): 5.96 µM; viability, T/C [1]: 98.7%; viability, T/C [2]: 99.6%; viability, T/C [3]: 97.7%; viability, T/C [4]: 94.6%; viability, T/C [5]: 82.4%; viability, T/C [6]: 30.9%; viability, T/C [7]: 92.7%; viability, T/C [8]: 88.4%; viability, T/C [9]: 90.6%; viability, T/C [10]: 86.8%; viability, T/C [11]: 80.6%; viability, T/C [12]: 26.5%; viability, T/C [13]: 97.2%; viability, T/C [14]: 94.7%; viability, T/C [15]: 98.5%; viability, T/C [16]: 93.5%; viability, T/C [17]: 79.4%; viability, T/C [18]: 30.6%; viability, T/C [19]: 106%; viability, T/C [20]: 96.1%; viability, T/C [21]: 86.3%; viability, T/C [22]: 84.8%; viability, T/C [23]: 79.3%; viability, T/C [24]: 24%; viability, T/C [25]: 104%; viability, T/C [26]: 92.2%; viability, T/C [27]: 94.7%; viability, T/C [28]: 90.7%; viability, T/C [29]: 75.1%; viability, T/C [30]: 31.4%; viability, T/C [31]: 101%; viability, T/C [32]: 80.5%; viability, T/C [33]: 87.6%; viability, T/C [34]: 83%; viability, T/C [35]: 81.8%; viability, T/C [36]: 24.1%
